The values that follow come from US11807644B2 (PMV Pharmaceuticals, Inc., priority 2020, dated 2023).

This test addresses T1, recombinant His-tag Y220C p53 DBD protein (Homo sapiens, UniProt P04637, Y220C).
T1 construct: recombinant His-tag Y220C p53 DBD protein (amino acids #˜94-312)
Nature of the test: In vitro DNA binding activity assay (TR-FRET): binding of His-tag Y220C p53 DBD to biotin-labeled consensus DNA. It is filed as biochemical. The following applies: SC150 = concentration to increase DNA binding by […], His-tag Y220C p53 DBD, biotin-labeled consensus DNA.
Turning to `CN1CC[C@@H](Nc2cccc3c2cc(-c2nc(CNC(=O)c4cncs4)no2)n3CC(F)(F)F)[C@@H](F)C1` (racemic) [Compound 279B, (+/−)-N-{[5-(4-{[(3R,4S)-3-fluoro-1-methylpiperidin-4-yl]amino}-1-(2,2,2-trifluoroethyl)-1H-indol-2-yl)-1,2,4-oxadiazol-3-yl]methyl}-1,3-thiazole-5-carboxamide], the “Y220C SC150 (μM)” value is “* (* = 0 μM ≤ SC150 < 0.1 μM)”.

As to `Cc1cc(C(=O)NCc2nc(-c3cc4c(N[C@@H]5CCN(C)C[C@@H]5F)cccc4n3CC(F)(F)F)no2)cs1` [Compound 208B, N-{[3-(4-{[(3S,4R)-3-fluoro-1-methylpiperidin-4-yl]amino}-1-(2,2,2-trifluoroethyl)-1H-indol-2-yl)-1,2,4-oxadiazol-5-yl]methyl}-5-methylthiophene-3-carboxamide], the “Y220C SC150 (μM)” value is listed as “* (* = 0 μM ≤ SC150 < 0.1 μM)”.

`CC(C)(C)n1ccc(C(=O)NCc2nc(-c3cc4c(N[C@@H]5CNCC[C@@H]5F)cccc4n3CC(F)(F)F)no2)c1` (racemic) [Compound 382B, rac-1-tert-butyl-N-{[3-(4-{[(3R,4S)-4-fluoropiperidin-3-yl]amino}-1-(2,2,2-trifluoroethyl)-1H-indol-2-yl)-1,2,4-oxadiazol-5-yl]methyl}-1H-pyrrole-3-carboxamide]: the “Y220C SC150 (μM)” value was “* (* = 0 μM ≤ SC150 < 0.1 μM)”.

As for `COc1cc(S(C)(=O)=O)ccc1NCc1nnc(-c2cc3c(N[C@H]4CCN(C)C[C@H]4F)cccc3n2CC(F)(F)F)o1` (racemic) [Compound 114B, (+/−)-N-[(3R,4S)-3-fluoro-1-methylpiperidin-4-yl]-2-(5-{[(4-methanesulfonyl-2-methoxyphenyl)amino]methyl}-1,3,4-oxadiazol-2-yl)-1-(2,2,2-trifluoroethyl)-1H-indol-4-amine], the “Y220C SC150 (μM)” value is “** (** = 0.1 μM ≤ SC150 < 0.5 μM)”.

In the case of `COC1CCCC1n1ccc(C(=O)NCc2nc(-c3cc4c(N[C@@H]5CN(C)CC[C@@H]5F)cccc4n3CC(F)(F)F)no2)c1` (stereo in doubt) [Compound 410B, N-{[3-(4-{[(3R,4S)-4-fluoro-1-methylpiperidin-3-yl]amino}-1-(2,2,2-trifluoroethyl)-1H-indol-2-yl)-1,2,4-oxadiazol-5-yl]methyl}-1-[(1R,2R)-2-methoxycyclopentyl]-1H-pyrrole-3-carboxamide], the “Y220C SC150 (μM)” value was “* (* = 0 μM ≤ SC150 < 0.1 μM)”.

Consider `O=C(NCc1nc(-c2cc3c(NCc4ccccc4)cccc3n2CC(F)(F)F)no1)C1CC1` [Compound 160B, N-({3-[4-(benzylamino)-1-(2,2,2-trifluoroethyl)-1H-indol-2-yl]-1,2,4-oxadiazol-5-yl}methyl)cyclopropanecarboxamide], for which the “Y220C SC150 (μM)” value is “** (** = 0.1 μM ≤ SC150 < 0.5 μM)”.

On to `CN1CC[C@@H](Nc2cccc3c2cc(-c2nc(CNC(=O)C4CC4)no2)n3CC(F)(F)F)[C@@H](F)C1` (racemic) [Compound 275B, (+/−)-N-{[5-(4-{[(3R,4S)-3-fluoro-1-methylpiperidin-4-yl]amino}-1-(2,2,2-trifluoroethyl)-1H-indol-2-yl)-1,2,4-oxadiazol-3-yl]methyl}cyclopropanecarboxamide], for which the “Y220C SC150 (μM)” value is “* (* = 0 μM ≤ SC150 < 0.1 μM)”.

Take `CN1CC[C@@H](Nc2cccc3c2cc(-c2noc(CNC(=O)c4ccsc4Cl)n2)n3CC(F)(F)F)[C@@H](F)C1` [Compound 215B, 2-chloro-N-{[3-(4-{[(3S,4R)-3-fluoro-1-methylpiperidin-4-yl]amino}-1-(2,2,2-trifluoroethyl)-1H-indol-2-yl)-1,2,4-oxadiazol-5-yl]methyl}thiophene-3-carboxamide]: the “Y220C SC150 (μM)” value is given as “* (* = 0 μM ≤ SC150 < 0.1 μM)”.

On to `CN1CC[C@H](Nc2cccc3c2cc(-c2noc(CNC(=O)C4CC4)n2)n3CC(F)(F)F)[C@H](F)C1` [Compound 174B, N-{[3-(4-{[(3R,4S)-3-fluoro-1-methylpiperidin-4-yl]amino}-1-(2,2,2-trifluoroethyl)-1H-indol-2-yl)-1,2,4-oxadiazol-5-yl]methyl}cyclopropanecarboxamide], for which the “Y220C SC150 (μM)” value was “* (* = 0 μM ≤ SC150 < 0.1 μM)”.

On to `CN1CCC(Nc2cccc3c2cc(-c2nnc(CNC(=O)N(C)C)s2)n3CC(F)(F)F)CC1` [Compound 68B, 3,3-dimethyl-1-[(5-{4-[(1-methylpiperidin-4-yl)amino]-1-(2,2,2-trifluoroethyl)-1H-indol-2-yl}-1,3,4-thiadiazol-2-yl)methyl]urea], for which the “Y220C SC150 (μM)” value was “** (** = 0.1 μM ≤ SC150 < 0.5 μM)”.

`CC1(n2ccc(C(=O)NCc3nc(-c4cc5c(N[C@@H]6CNCC[C@@H]6F)cccc5n4CC(F)(F)F)no3)c2)CCOCC1` [Compound 420B, N-{[3-(4-{[(3R,4S)-4-fluoropiperidin-3-yl]amino}-1-(2,2,2-trifluoroethyl)-1H-indol-2-yl)-1,2,4-oxadiazol-5-yl]methyl}-1-(4-methyloxan-4-yl)-1H-pyrrole-3-carboxamide]: the “Y220C SC150 (μM)” value is recorded as “* (* = 0 μM ≤ SC150 < 0.1 μM)”.

As to `CN1CC[C@@H](Nc2cccc3c2cc(-c2noc(CNC(=O)c4cnn(C5(C)CC5)c4)n2)n3CC(F)(F)F)[C@@H](F)C1` [Compound 448B, N-{[3-(4-{[(3S,4R)-3-fluoro-1-methylpiperidin-4-yl]amino}-1-(2,2,2-trifluoroethyl)-1H-indol-2-yl)-1,2,4-oxadiazol-5-yl]methyl}-1-(1-methylcyclopropyl)-1H-pyrazole-4-carboxamide], the “Y220C SC150 (μM)” value was “* (* = 0 μM ≤ SC150 < 0.1 μM)”.

Turning to `COCc1cc(C(=O)NCc2nc(-c3cc4c(N[C@@H]5CCN(C)C[C@@H]5F)cccc4n3CC(F)(F)F)no2)cs1` [Compound 464B, N-{[3-(4-{[(3S,4R)-3-fluoro-1-methylpiperidin-4-yl]amino}-1-(2,2,2-trifluoroethyl)-1H-indol-2-yl)-1,2,4-oxadiazol-5-yl]methyl}-5-(methoxymethyl)thiophene-3-carboxamide], the “Y220C SC150 (μM)” value was “* (* = 0 μM ≤ SC150 < 0.1 μM)”.

Consider `CC(C)(C)n1cc(C(=O)NCc2nc(-c3cc4c(N[C@H]5CCCNC5)cccc4n3CC(F)(F)F)no2)cn1` [Compound 353B], for which the “Y220C SC150 (μM)” value is listed as “* (* = 0 μM ≤ SC150 < 0.1 μM)”.

With `CN1CC[C@@H](Nc2cccc3c2cc(-c2noc(CNC(=O)c4ccncc4)n2)n3CC(F)(F)F)[C@@H](F)C1` [Compound 200B, N-{[3-(4-{[(3S,4R)-3-fluoro-1-methylpiperidin-4-yl]amino}-1-(2,2,2-trifluoroethyl)-1H-indol-2-yl)-1,2,4-oxadiazol-5-yl]methyl}pyridine-4-carboxamide], the “Y220C SC150 (μM)” value is recorded as “* (* = 0 μM ≤ SC150 < 0.1 μM)”.

`O=C(NCc1nc(-c2cc3c(NC4CCN(Cc5ccccc5)CC4)cccc3n2CC(F)(F)F)no1)C1CC1` [Compound 163B, N-[(3-{4-[(1-benzylpiperidin-4-yl)amino]-1-(2,2,2-trifluoroethyl)-1H-indol-2-yl}-1,2,4-oxadiazol-5-yl)methyl]cyclopropanecarboxamide]: the “Y220C SC150 (μM)” value was “* (* = 0 μM ≤ SC150 < 0.1 μM)”.

With `CN1CC[C@@H](Nc2cccc3c2cc(-c2noc(CNC(=O)c4csc(N(C)C(C)(C)C)n4)n2)n3CC(F)(F)F)[C@@H](F)C1` [Compound 528B, 2-[tert-butyl(methyl)amino]-N-{[3-(4-{[(3S,4R)-3-fluoro-1-methylpiperidin-4-yl]amino}-1-(2,2,2-trifluoroethyl)-1H-indol-2-yl)-1,2,4-oxadiazol-5-yl]methyl}-1,3-thiazole-4-carboxamide], the “Y220C SC150 (μM)” value is “* (* = 0 μM ≤ SC150 < 0.1 μM)”.
